# In patent publication US20260015364A1, “PIPERAZINE BRIDGE-SUBSTITUTED HETEROCYCLIC PYRIMIDINE COMPOUND” (MEDSHINE DISCOVERY INC., priority 2022, published 2026):
# Assay: In vivo pharmacokinetic experiment in CD-1 mice
# Protocol: This experiment aims to investigate the pharmacokinetic properties of the compounds of the present disclosure administrated by oral and intravenous injection in CD-1 mice.
# The test compound was mixed with 10% dimethyl sulfoxide+90% (10% hydroxypropyl-β-cyclodextrin (HP-β-CD) aqueous solution), vortexed, and sonicated to prepare 0.6, 3.0, and 10.0 mg/mL clear solutions, respectively. Male CD-1 mice aged 7 to 10 weeks were selected and intravenously injected (i.v.) with a solution of the candidate compound at a dose of 3 mg/kg (administration concentration of 0.6 mg/mL). The solution of the candidate compound was administered orally (p.o.) at a dose of 30 mg/kg (administration concentration of 3.0 mg/mL) or 100 mg/kg (administration concentration of 10.0 mg/mL). Whole blood was collected for a certain period of time and prepared into plasma. The drug concentration was analyzed by the LC-MS/MS method, and the pharmacokinetic parameters were calculated using Phoenix WinNonlin software (Pharsight, USA).
# [1] = male, mouse, iv, 3 mg/kg, i.v. 3 mpk, plasma
# [2] = male, mouse, po, 30 mg/kg, p.o. 30 mpk, plasma
# [3] = male, mouse, po, 100 mg/kg, p.o. 100 mpk, plasma
smiles,measurement,setting,value
"C#Cc1c(F)ccc2cc(N)cc(-c3ncc4c(N5CC6CCC(C5)N6)nc(OC[C@@]56CC(=C)CN5C[C@@H]5C[C@@H]56)nc4c3F)c12 (single isomer, unassigned) [Compound 3]",AUC(0-inf),[1],1.66 µM·h
same,AUC(0-t),[1],1.56 µM·h
same,Vd,[1],41.1 L/kg
same,clearance,[1],50.8 mL/min/kg
same,half-life,[1],9.3 h
same,AUC(0-inf),[2],1.18 µM·h
same,AUC(0-t),[2],1.15 µM·h
same,Cmax,[2],439 nM
same,Tmax,[2],0.583 h
same,half-life,[2],5.41 h
same,AUC(0-inf),[3],13.3 µM·h
same,AUC(0-t),[3],13.1 µM·h
same,Cmax,[3],3110 nM
same,Tmax,[3],1.25 h
same,half-life,[3],4.24 h
same,F,p.o. 100 mpk,24.0%
